Measurements reported in BindingDB's records for PubMed 2138666 (Department of Veterans Affairs Medical Center, 1990).

Key:
[1] = molecular target: T1, Alpha-2C adrenergic receptor (Rattus norvegicus, UniProt P22086)
T1 sequence (P22086 whole entry): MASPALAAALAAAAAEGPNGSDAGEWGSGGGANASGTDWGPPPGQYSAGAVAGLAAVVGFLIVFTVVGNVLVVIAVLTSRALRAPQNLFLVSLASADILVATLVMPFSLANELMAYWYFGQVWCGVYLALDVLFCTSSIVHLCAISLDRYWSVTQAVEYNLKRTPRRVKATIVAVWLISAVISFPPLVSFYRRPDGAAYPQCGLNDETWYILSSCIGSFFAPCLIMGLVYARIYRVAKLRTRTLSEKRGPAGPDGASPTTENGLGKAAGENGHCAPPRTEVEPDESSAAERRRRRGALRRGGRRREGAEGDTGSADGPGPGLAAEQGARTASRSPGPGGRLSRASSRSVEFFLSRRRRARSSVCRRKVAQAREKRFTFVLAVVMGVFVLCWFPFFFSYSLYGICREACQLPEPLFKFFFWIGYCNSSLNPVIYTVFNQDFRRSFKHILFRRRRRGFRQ

[2] = molecular target: D(2) dopamine receptor (Rattus norvegicus, UniProt P61169)
D(2) dopamine receptor, sequence (P61169 whole entry): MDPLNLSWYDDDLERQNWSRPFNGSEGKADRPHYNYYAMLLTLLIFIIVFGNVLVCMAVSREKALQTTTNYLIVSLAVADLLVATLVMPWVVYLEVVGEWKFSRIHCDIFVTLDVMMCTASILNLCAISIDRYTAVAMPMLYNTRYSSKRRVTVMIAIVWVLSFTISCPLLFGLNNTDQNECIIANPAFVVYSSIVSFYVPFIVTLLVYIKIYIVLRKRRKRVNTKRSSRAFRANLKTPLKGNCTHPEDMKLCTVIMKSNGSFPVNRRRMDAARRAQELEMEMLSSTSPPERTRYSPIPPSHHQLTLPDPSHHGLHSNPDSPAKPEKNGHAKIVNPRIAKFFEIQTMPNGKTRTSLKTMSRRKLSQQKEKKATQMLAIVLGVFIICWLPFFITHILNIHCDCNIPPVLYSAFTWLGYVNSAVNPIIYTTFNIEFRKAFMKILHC

Ki [1]	Ki [2]	Compound
0.158 µM	–	CC(C)(C)[C@]1(O)CCN2C[C@H]3c4ccccc4CCc4cccc(c43)[C@@H]2C1
–	> 10 µM	Clc1cccc(Cl)c1N=C1NCCN1 [2-(2,6-dichloroanilino)-2-imidazoline]
4.3 µM	–	CCN1CCCC1CNC(=O)c1cc(S(N)(=O)=O)ccc1OC (stereo not given) [N-[(1-ethylpyrrolidin-2-yl)methyl]-2-methoxy-5-sulfamoylbenzamide]
–	> 10 µM	Nc1cc(Cl)c(N=C2NCCN2)c(Cl)c1 [p-AMINOCLONIDINE]

Compound	Ki [1]	Ki [2]
c1ccc2c(c1)OCC(C1=NCCN1)O2 (stereo not given)	–	> 10 µM
